In patent EP1170365A1, “Member of the ion channel family of polypeptides; vanilrep4” (SMITHKLINE BEECHAM PLC, priority 2000, dated 2002):

Tests used:
Type in all cases: cell-based
hVR1 = target: T1, hVR1 (Homo sapiens, UniProt Q8NER1); experiment: cell-based; conditions: for activity at VR1: result in words
T1 construct: expressed in transfected cells; host or cells: HEK293 (transient)

[1] = tested on: cells transfected with empty vector; experiment: FLIPR intracellular calcium assay (Fluo-3) in HEK293 cells transfected with empty vector; conditions: result in words
wild type HEK293 cells = experiment: FLIPR intracellular calcium assay (Fluo-3) in wild type HEK293 cells; conditions: result in words
hVR4 = target: T2, hVR4 (Homo sapiens, UniProt Q9HBA0); experiment: FLIPR intracellular calcium assay (Fluo-3) in HEK293 cells transiently expressing hVR4; conditions: for effect on intracellular calcium: HEK293-hVR4 cells, result in words
T2 construct: expressed in transfected cells; host or cells: HEK293 (transient)
Experimental: HEK293 cells transiently expressing hVR1 or hVR4 were seeded into FLIPR96 plates at 25,000cells/well and cultured overnight. The cells were then loaded in medium containing 4microM Fluo-3 for 2hrs, at room temperature, in the dark. The cell plates were then washed 4x with Tyrode containing 1.5mM calcium and 0.2% BSA. Agonist and antagonist plates were prepared in the same buffer. Cells were preincubated with either antagonist or buffer at room temperature for 30 mins. Agonists additions and calcium measurements were made in the FLIPR (Smart et al., (2000) Br J. Pharmacol. 129, 227-230).

T1 sequence (Q8NER1 whole entry): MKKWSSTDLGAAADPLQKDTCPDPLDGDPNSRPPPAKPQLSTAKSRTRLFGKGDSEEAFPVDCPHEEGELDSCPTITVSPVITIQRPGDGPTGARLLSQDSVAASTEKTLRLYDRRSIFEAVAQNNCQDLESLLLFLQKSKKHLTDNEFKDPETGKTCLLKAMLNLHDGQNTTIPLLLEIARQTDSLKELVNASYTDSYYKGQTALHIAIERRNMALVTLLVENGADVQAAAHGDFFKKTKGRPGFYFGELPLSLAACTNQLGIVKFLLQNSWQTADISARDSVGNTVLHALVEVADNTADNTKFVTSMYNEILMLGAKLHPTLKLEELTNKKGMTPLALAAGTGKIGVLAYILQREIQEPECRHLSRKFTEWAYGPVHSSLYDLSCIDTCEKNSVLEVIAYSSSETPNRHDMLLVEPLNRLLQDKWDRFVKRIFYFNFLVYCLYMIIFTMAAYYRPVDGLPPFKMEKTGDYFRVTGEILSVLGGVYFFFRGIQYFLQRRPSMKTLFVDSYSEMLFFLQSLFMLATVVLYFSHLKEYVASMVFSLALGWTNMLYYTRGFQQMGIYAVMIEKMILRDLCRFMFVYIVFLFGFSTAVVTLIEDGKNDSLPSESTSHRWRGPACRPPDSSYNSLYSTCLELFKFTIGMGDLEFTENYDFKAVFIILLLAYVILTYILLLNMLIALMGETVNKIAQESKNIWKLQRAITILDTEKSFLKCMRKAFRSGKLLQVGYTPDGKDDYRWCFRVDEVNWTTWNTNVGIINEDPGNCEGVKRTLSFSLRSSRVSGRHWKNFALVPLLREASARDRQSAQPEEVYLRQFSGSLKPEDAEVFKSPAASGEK
T2 sequence (Q9HBA0 whole entry): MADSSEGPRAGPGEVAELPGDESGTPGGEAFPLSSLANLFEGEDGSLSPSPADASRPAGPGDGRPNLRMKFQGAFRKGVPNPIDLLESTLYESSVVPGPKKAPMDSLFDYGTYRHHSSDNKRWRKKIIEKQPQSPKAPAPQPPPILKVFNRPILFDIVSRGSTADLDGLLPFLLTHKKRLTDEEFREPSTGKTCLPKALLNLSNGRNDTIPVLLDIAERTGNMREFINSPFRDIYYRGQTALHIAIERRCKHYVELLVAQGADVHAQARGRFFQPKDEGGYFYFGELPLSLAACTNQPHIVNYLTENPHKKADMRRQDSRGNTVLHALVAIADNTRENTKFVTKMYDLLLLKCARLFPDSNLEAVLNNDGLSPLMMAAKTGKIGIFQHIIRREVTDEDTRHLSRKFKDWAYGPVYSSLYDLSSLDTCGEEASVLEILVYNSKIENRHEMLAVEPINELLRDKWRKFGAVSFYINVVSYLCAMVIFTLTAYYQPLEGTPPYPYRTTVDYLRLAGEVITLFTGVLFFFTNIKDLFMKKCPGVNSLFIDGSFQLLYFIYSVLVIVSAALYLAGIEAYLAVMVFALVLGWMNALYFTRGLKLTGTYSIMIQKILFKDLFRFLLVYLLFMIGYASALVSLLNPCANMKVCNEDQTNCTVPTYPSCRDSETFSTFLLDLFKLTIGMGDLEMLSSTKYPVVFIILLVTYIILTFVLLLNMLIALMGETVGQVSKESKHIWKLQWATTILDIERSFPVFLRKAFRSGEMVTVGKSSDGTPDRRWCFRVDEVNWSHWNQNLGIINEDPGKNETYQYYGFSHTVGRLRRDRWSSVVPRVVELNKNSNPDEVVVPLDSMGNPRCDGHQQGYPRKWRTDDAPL

SMILES: CCCCCCCCCC(=O)O[C@@H]1[C@@H](C)[C@@]2(O)[C@@H](C=C(CO)C[C@@]3(O)C(=O)C(C)=C[C@@H]23)[C@@H]2C(C)(C)[C@]12OC(=O)CCCCCCCCC [4αPDD, 4α-phorbol-12,13-didecanoate]
- activity at VR1 (hVR1; VR1): inactive
- effect on intracellular calcium [1]: without effect
- effect on intracellular calcium (wild type HEK293 cells): without effect
- effect on intracellular calcium (hVR4): increased intracellular calcium
- pEC50 (hVR4; HEK293 cells expressing hVR4, mean±s.e.mean, n=3-5, IA= inactive): 5.73±0.06
- selectivity (hVR4; VR4 versus VR1, conclusion in words): VR4 selective agonist

SMILES: CCCCCCCCCCCCCC(=O)O[C@@H]1[C@@H](C)[C@@]2(O)[C@@H](C=C(CO)C[C@]3(O)C(=O)C(C)=C[C@@H]23)[C@@H]2C(C)(C)[C@]12OC(C)=O [PMA, phorbol 12-myristate 13-acetate]
- EC50 (hVR1): 13.8 nM
- Emax (hVR1; VR1, compared to capsaicin and RTX): 0.46
- activity at VR1 (hVR1; VR1): partial agonist
- effect on intracellular calcium [1]: without effect
- effect on intracellular calcium (wild type HEK293 cells): without effect
- EC50 (hVR4): 229 nM
- effect on intracellular calcium (hVR4): increased intracellular calcium

SMILES: C=C(C)C12CC(C)C34OC(Cc5ccccc5)(OC1C3C=C(COC(=O)Cc1ccc(O)c(OC)c1)CC1(O)C(=O)C(C)=CC14)O2 (centres unmarked) [RTX]
- EC50 (hVR1): 1.17 nM
